{"source": "patent US10004701B2", "about": "“Methods and compositions for treating infection” (UNIVERSITY OF ROCHESTER, priority 2012, dated 2018)", "test_in_all_cases": "AK assay 384-well format, Prestwick library screening", "key": {"[1]": {"tested_on": "P. aeruginosa", "format": "cell-based, Pseudomonas aeruginosa", "settings": "Pseudomonas aeruginosa, 3 h, 50 μM final drug concentration"}, "[2]": {"tested_on": "E. cloacae", "format": "cell-based, Enterobacter cloacae", "settings": "Enterobacter cloacae, 3 h, 50 μM final drug concentration"}, "[3]": {"tested_on": "A. baumannii strain 98-37-09", "format": "cell-based, Acinetobacter baumannii", "settings": "Acinetobacter baumannii, 983709, 3 h, 50 μM final drug concentration"}, "[4]": {"tested_on": "K. pneumoniae", "format": "cell-based, Klebsiella pneumoniae", "settings": "Klebsiella pneumoniae, 3 h, 50 μM final drug concentration"}, "[5]": {"tested_on": "E. faecium", "format": "cell-based, Enterococcus faecium", "settings": "Enterococcus faecium, 3 h, 50 μM final drug concentration"}, "[6]": {"tested_on": "S. aureus strain USA300-0114", "format": "cell-based, Staphylococcus aureus", "settings": "Staphylococcus aureus, USA300, 3 h, 50 μM final drug concentration"}, "[7]": {"tested_on": "E. coli", "format": "cell-based, Escherichia coli", "settings": "Escherichia coli, 3 h, 50 μM final drug concentration"}, "[8]": {"settings": "planktonic, cutoff for positive 3-fold increase, read-out: AK-based Prestwick Library Screening Results, P. aeruginosa (fold increase in extracellular AK activity)"}, "[9]": {"settings": "planktonic, cutoff for positive 3-fold increase, read-out: AK-based Prestwick Library Screening Results, E. cloacae (fold increase in extracellular AK activity)"}, "[10]": {"settings": "planktonic, cutoff for positive 3-fold increase, read-out: AK-based Prestwick Library Screening Results, A. baumannii (fold increase in extracellular AK activity)"}, "[11]": {"settings": "planktonic, cutoff for positive 3-fold increase, read-out: AK-based Prestwick Library Screening Results, K. pneumoniae (fold increase in extracellular AK activity)"}, "[12]": {"settings": "planktonic, cutoff for positive 3-fold increase, read-out: AK-based Prestwick Library Screening Results, E. faecium (fold increase in extracellular AK activity)"}, "[13]": {"settings": "planktonic, cutoff for positive 3-fold increase, read-out: AK-based Prestwick Library Screening Results, S. aureus (fold increase in extracellular AK activity)"}, "[14]": {"settings": "planktonic, cutoff for positive 3-fold increase, read-out: AK-based Prestwick Library Screening Results, E. coli (fold increase in extracellular AK activity)"}}, "note": "Where a name gives a salt, the structure may show the parent alone. Read-outs that look alike come from different tables or passages of the source."}
{"smiles": "CCN(CC)CCNC(=O)COc1ccc(OC)cc1", "note": "[Mefexamide hydrochloride]", "values": [{"measurement": "fold induction at 50 µM", "setting": "[1]; planktonic P. aeruginosa, 384-well, cutoff for positive-scoring molecules 3-fold increase, read-out: AK-based Prestwick Library Screening Results: P. aeruginosa (increase in extracellular AK activity)", "value": 1.1}, {"measurement": "fold induction at 50 µM", "setting": "[2]; planktonic E. cloacae, 384-well, cutoff for positive-scoring molecules 3-fold increase, read-out: AK-based Prestwick Library Screening Results: E. cloacae (increase in extracellular AK activity)", "value": 1.3}, {"measurement": "fold induction at 50 µM", "setting": "[3]; planktonic A. baumannii, 384-well, cutoff for positive-scoring molecules 3-fold increase, read-out: AK-based Prestwick Library Screening Results: A. baumannii (increase in extracellular AK activity)", "value": 1}, {"measurement": "fold induction at 50 µM", "setting": "[4]; planktonic K. pneumoniae, 384-well, cutoff for positive-scoring molecules 3-fold increase, read-out: AK-based Prestwick Library Screening Results: K. pneumoniae (increase in extracellular AK activity)", "value": 0.9}, {"measurement": "fold induction at 50 µM", "setting": "[5]; planktonic E. faecium, 384-well, cutoff for positive-scoring molecules 3-fold increase, read-out: AK-based Prestwick Library Screening Results: E. faecium (increase in extracellular AK activity)", "value": 1}, {"measurement": "fold induction at 50 µM", "setting": "[6]; planktonic S. aureus, 384-well, cutoff for positive-scoring molecules 3-fold increase, read-out: AK-based Prestwick Library Screening Results: S. aureus (increase in extracellular AK activity)", "value": 0.9}, {"measurement": "fold induction at 50 µM", "setting": "[7]; planktonic E. coli, 384-well, cutoff for positive-scoring molecules 3-fold increase, read-out: AK-based Prestwick Library Screening Results: E. coli (increase in extracellular AK activity)", "value": 1.2}]}
{"smiles": "OC(c1cc(C(F)(F)F)nc2c(C(F)(F)F)cccc12)C1CCCCN1", "note": "(centres unmarked) [Mefloquine hydrochloride]", "values": [{"measurement": "fold induction at 50 µM", "setting": "[1]; 384-well format, cutoff for positive-scoring molecules 3-fold increase, read-out: AK-based Prestwick Library Screening Results, P. aeruginosa (increase in extracellular AK activity)", "value": 1.1}, {"measurement": "fold induction at 50 µM", "setting": "[2]; 384-well format, cutoff for positive-scoring molecules 3-fold increase, read-out: AK-based Prestwick Library Screening Results, E. cloacae (increase in extracellular AK activity)", "value": 1.2}, {"measurement": "fold induction at 50 µM", "setting": "[3]; 384-well format, cutoff for positive-scoring molecules 3-fold increase, read-out: AK-based Prestwick Library Screening Results, A. baumannii (increase in extracellular AK activity)", "value": 2.6}, {"measurement": "fold induction at 50 µM", "setting": "[4]; 384-well format, cutoff for positive-scoring molecules 3-fold increase, read-out: AK-based Prestwick Library Screening Results, K. pneumoniae (increase in extracellular AK activity)", "value": 1.3}, {"measurement": "fold induction at 50 µM", "setting": "[5]; 384-well format, cutoff for positive-scoring molecules 3-fold increase, read-out: AK-based Prestwick Library Screening Results, E. faecium (increase in extracellular AK activity)", "value": 1}, {"measurement": "fold induction at 50 µM", "setting": "[6]; 384-well format, cutoff for positive-scoring molecules 3-fold increase, read-out: AK-based Prestwick Library Screening Results, S. aureus (increase in extracellular AK activity)", "value": 3.2}, {"measurement": "fold induction at 50 µM", "setting": "[7]; 384-well format, cutoff for positive-scoring molecules 3-fold increase, read-out: AK-based Prestwick Library Screening Results, E. coli (increase in extracellular AK activity)", "value": 1.3}]}
{"smiles": "CC(=O)O[C@]1(C(C)=O)CC[C@H]2[C@@H]3C=C(C)C4=CC(=O)CC[C@]4(C)[C@H]3CC[C@@]21C", "note": "[Megestrol acetate]", "values": [{"measurement": "fold induction at 50 µM", "setting": "[1]; cutoff for positive-scoring molecules 3-fold increase, read-out: AK-based Prestwick Library Screening Results, P. aeruginosa (fold increase in extracellular AK activity)", "value": 1.2}, {"measurement": "fold induction at 50 µM", "setting": "[2]; cutoff for positive-scoring molecules 3-fold increase, read-out: AK-based Prestwick Library Screening Results, E. cloacae (fold increase in extracellular AK activity)", "value": 1.6}, {"measurement": "fold induction at 50 µM", "setting": "[3]; cutoff for positive-scoring molecules 3-fold increase, read-out: AK-based Prestwick Library Screening Results, A. baumannii (fold increase in extracellular AK activity)", "value": 1.2}, {"measurement": "fold induction at 50 µM", "setting": "[4]; cutoff for positive-scoring molecules 3-fold increase, read-out: AK-based Prestwick Library Screening Results, K. pneumoniae (fold increase in extracellular AK activity)", "value": 1}, {"measurement": "fold induction at 50 µM", "setting": "[5]; cutoff for positive-scoring molecules 3-fold increase, read-out: AK-based Prestwick Library Screening Results, E. faecium (fold increase in extracellular AK activity)", "value": 1.2}, {"measurement": "fold induction at 50 µM", "setting": "[6]; cutoff for positive-scoring molecules 3-fold increase, read-out: AK-based Prestwick Library Screening Results, S. aureus (fold increase in extracellular AK activity)", "value": 0.9}, {"measurement": "fold induction at 50 µM", "setting": "[7]; cutoff for positive-scoring molecules 3-fold increase, read-out: AK-based Prestwick Library Screening Results, E. coli (fold increase in extracellular AK activity)", "value": 1.1}]}
{"smiles": "CNC[C@H](O)[C@@H](O)[C@H](O)[C@H](O)CO", "note": "[Meglumine]", "values": [{"measurement": "fold induction at 50 µM", "setting": "[1]; planktonic, […], read-out: AK-based Prestwick Library Screening Results, P. aeruginosa (fold increase in extracellular AK activity)", "value": 0.5}, {"measurement": "fold induction at 50 µM", "setting": "[2]; planktonic, […], read-out: AK-based Prestwick Library Screening Results, E. cloacae (fold increase in extracellular AK activity)", "value": 0.6}, {"measurement": "fold induction at 50 µM", "setting": "[3]; planktonic, […], read-out: AK-based Prestwick Library Screening Results, A. baumannii (fold increase in extracellular AK activity)", "value": 0.5}, {"measurement": "fold induction at 50 µM", "setting": "[4]; planktonic, […], read-out: AK-based Prestwick Library Screening Results, K. pneumoniae (fold increase in extracellular AK activity)", "value": 0.7}, {"measurement": "fold induction at 50 µM", "setting": "[5]; planktonic, […], read-out: AK-based Prestwick Library Screening Results, E. faecium (fold increase in extracellular AK activity)", "value": 0.8}, {"measurement": "fold induction at 50 µM", "setting": "[6]; planktonic, […], read-out: AK-based Prestwick Library Screening Results, S. aureus (fold increase in extracellular AK activity)", "value": 0.5}, {"measurement": "fold induction at 50 µM", "setting": "[7]; planktonic, […], read-out: AK-based Prestwick Library Screening Results, E. coli (fold increase in extracellular AK activity)", "value": 0.5}]}
{"smiles": "COc1ccc2[nH]cc(CCNC(C)=O)c2c1", "note": "[Melatonin]", "values": [{"measurement": "fold induction at 50 µM", "setting": "[1]; [8]", "value": 1.1}, {"measurement": "fold induction at 50 µM", "setting": "[2]; [9]", "value": 1.4}, {"measurement": "fold induction at 50 µM", "setting": "[3]; [10]", "value": 1.2}, {"measurement": "fold induction at 50 µM", "setting": "[4]; [11]", "value": 0.8}, {"measurement": "fold induction at 50 µM", "setting": "[5]; [12]", "value": 1}, {"measurement": "fold induction at 50 µM", "setting": "[6]; [13]", "value": 1.3}, {"measurement": "fold induction at 50 µM", "setting": "[7]; [14]", "value": 0.9}]}
{"smiles": "Cc1cnc(NC(=O)C2=C(O)c3ccccc3S(=O)(=O)N2C)s1", "note": "[Meloxicam]", "values": [{"measurement": "fold induction at 50 µM", "setting": "[1]; planktonic P. aeruginosa, cutoff for positive-scoring molecules 3-fold increase, read-out: AK-based Prestwick Library Screening Results, P. aeruginosa (increase in extracellular AK activity)", "value": 0.9}, {"measurement": "fold induction at 50 µM", "setting": "[2]; planktonic E. cloacae, cutoff for positive-scoring molecules 3-fold increase, read-out: AK-based Prestwick Library Screening Results, E. cloacae (increase in extracellular AK activity)", "value": 1.2}, {"measurement": "fold induction at 50 µM", "setting": "[3]; planktonic A. baumannii, cutoff for positive-scoring molecules 3-fold increase, read-out: AK-based Prestwick Library Screening Results, A. baumannii (increase in extracellular AK activity)", "value": 0.9}, {"measurement": "fold induction at 50 µM", "setting": "[4]; planktonic K. pneumoniae, cutoff for positive-scoring molecules 3-fold increase, read-out: AK-based Prestwick Library Screening Results, K. pneumoniae (increase in extracellular AK activity)", "value": 0.8}, {"measurement": "fold induction at 50 µM", "setting": "[5]; planktonic E. faecium, cutoff for positive-scoring molecules 3-fold increase, read-out: AK-based Prestwick Library Screening Results, E. faecium (increase in extracellular AK activity)", "value": 0.9}, {"measurement": "fold induction at 50 µM", "setting": "[6]; planktonic S. aureus, cutoff for positive-scoring molecules 3-fold increase, read-out: AK-based Prestwick Library Screening Results, S. aureus (increase in extracellular AK activity)", "value": 2}, {"measurement": "fold induction at 50 µM", "setting": "[7]; planktonic E. coli, cutoff for positive-scoring molecules 3-fold increase, read-out: AK-based Prestwick Library Screening Results, E. coli (increase in extracellular AK activity)", "value": 1}]}
{"smiles": "CC12CC3CC(C)(C1)CC(N)(C3)C2", "note": "[Memantine Hydrochloride]", "values": [{"measurement": "fold induction at 50 µM", "setting": "[1]; planktonic P. aeruginosa, positive cutoff 3-fold increase, read-out: AK-based Prestwick library screening result, P. aeruginosa (fold increase in extracellular AK activity)", "value": 0.6}, {"measurement": "fold induction at 50 µM", "setting": "[2]; planktonic E. cloacae, positive cutoff 3-fold increase, read-out: AK-based Prestwick library screening result, E. cloacae (fold increase in extracellular AK activity)", "value": 0.7}, {"measurement": "fold induction at 50 µM", "setting": "[3]; planktonic A. baumannii, positive cutoff 3-fold increase, read-out: AK-based Prestwick library screening result, A. baumannii (fold increase in extracellular AK activity)", "value": 0.7}, {"measurement": "fold induction at 50 µM", "setting": "[4]; planktonic K. pneumoniae, positive cutoff 3-fold increase, read-out: AK-based Prestwick library screening result, K. pneumoniae (fold increase in extracellular AK activity)", "value": 0.5}, {"measurement": "fold induction at 50 µM", "setting": "[5]; planktonic E. faecium, positive cutoff 3-fold increase, read-out: AK-based Prestwick library screening result, E. faecium (fold increase in extracellular AK activity)", "value": 0.9}, {"measurement": "fold induction at 50 µM", "setting": "[6]; planktonic S. aureus, positive cutoff 3-fold increase, read-out: AK-based Prestwick library screening result, S. aureus (fold increase in extracellular AK activity)", "value": 0.6}, {"measurement": "fold induction at 50 µM", "setting": "[7]; planktonic E. coli, positive cutoff 3-fold increase, read-out: AK-based Prestwick library screening result, E. coli (fold increase in extracellular AK activity)", "value": 0.6}]}
{"smiles": "CC1=CC(=O)c2ccccc2C1=O", "note": "[Menadione]", "values": [{"measurement": "fold induction at 50 µM", "setting": "[1]; [8]", "value": 1.2}, {"measurement": "fold induction at 50 µM", "setting": "[2]; [9]", "value": 1.5}, {"measurement": "fold induction at 50 µM", "setting": "[3]; [10]", "value": 1}, {"measurement": "fold induction at 50 µM", "setting": "[4]; [11]", "value": 1}, {"measurement": "fold induction at 50 µM", "setting": "[5]; [12]", "value": 1.1}, {"measurement": "fold induction at 50 µM", "setting": "[6]; [13]", "value": 1.4}, {"measurement": "fold induction at 50 µM", "setting": "[7]; [14]", "value": 1}]}
